Source: ChEMBL document CHEMBL2380241, “Identification of novel SIRT3 inhibitor scaffolds by virtual screening” (Bioorg Med Chem Lett, 2013)
Calls of active or inactive are those of the source. The rule behind the calls is not given here.

What was measured:
[1] = target: T1, NAD-dependent protein deacetylase sirtuin-3, mitochondrial (Homo sapiens) (UniProt Q9NTG7); test: Inhibition of recombinant His-tagged SIRT3 (unknown origin) using Fluor de Lys acetylated KI179 as substrate at 200 uM incubated for 5 mins followed by enzyme addition measured after 1 hr by fluorescence assay relative to control
T1 sequence (whole entry): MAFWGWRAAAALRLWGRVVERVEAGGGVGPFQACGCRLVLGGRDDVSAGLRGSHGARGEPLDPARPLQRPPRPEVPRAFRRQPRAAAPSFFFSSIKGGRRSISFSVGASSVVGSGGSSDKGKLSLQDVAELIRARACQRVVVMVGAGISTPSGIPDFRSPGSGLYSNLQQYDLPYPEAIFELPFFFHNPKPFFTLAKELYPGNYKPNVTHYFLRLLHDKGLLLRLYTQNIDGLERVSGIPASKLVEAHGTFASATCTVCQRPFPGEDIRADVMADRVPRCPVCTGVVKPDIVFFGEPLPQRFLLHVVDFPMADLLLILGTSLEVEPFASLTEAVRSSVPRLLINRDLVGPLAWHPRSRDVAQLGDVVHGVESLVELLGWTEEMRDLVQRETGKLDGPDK

[2] = target: T2, NAD-dependent protein deacetylase sirtuin-2 (Homo sapiens) (UniProt Q8IXJ6); test: Inhibition of recombinant GST-tagged SIRT2 (unknown origin) using Fluor de Lys acetylated KI179 as substrate at 200 uM incubated for 5 mins followed by enzyme addition measured after 1 hr by fluorescence assay relative to control
T2 sequence (whole entry): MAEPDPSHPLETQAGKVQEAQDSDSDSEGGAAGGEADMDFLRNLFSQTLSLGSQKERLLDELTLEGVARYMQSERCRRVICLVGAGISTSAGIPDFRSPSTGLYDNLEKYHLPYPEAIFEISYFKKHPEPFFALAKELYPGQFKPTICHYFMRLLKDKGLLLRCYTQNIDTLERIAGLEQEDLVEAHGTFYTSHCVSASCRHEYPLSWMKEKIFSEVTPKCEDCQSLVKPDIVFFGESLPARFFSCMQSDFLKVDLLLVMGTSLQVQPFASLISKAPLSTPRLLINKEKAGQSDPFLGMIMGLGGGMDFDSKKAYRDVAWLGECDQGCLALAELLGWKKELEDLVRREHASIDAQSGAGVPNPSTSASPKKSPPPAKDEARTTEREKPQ

[3] = target: T3, NAD-dependent protein deacetylase sirtuin-1 (Homo sapiens) (UniProt Q96EB6); test: Inhibition of recombinant GST-tagged SIRT1 (unknown origin) using Fluor de Lys acetylated KI177 as substrate at 200 uM incubated for 5 mins followed by enzyme addition measured after 1 hr by fluorescence assay relative to control
T3 sequence (whole entry): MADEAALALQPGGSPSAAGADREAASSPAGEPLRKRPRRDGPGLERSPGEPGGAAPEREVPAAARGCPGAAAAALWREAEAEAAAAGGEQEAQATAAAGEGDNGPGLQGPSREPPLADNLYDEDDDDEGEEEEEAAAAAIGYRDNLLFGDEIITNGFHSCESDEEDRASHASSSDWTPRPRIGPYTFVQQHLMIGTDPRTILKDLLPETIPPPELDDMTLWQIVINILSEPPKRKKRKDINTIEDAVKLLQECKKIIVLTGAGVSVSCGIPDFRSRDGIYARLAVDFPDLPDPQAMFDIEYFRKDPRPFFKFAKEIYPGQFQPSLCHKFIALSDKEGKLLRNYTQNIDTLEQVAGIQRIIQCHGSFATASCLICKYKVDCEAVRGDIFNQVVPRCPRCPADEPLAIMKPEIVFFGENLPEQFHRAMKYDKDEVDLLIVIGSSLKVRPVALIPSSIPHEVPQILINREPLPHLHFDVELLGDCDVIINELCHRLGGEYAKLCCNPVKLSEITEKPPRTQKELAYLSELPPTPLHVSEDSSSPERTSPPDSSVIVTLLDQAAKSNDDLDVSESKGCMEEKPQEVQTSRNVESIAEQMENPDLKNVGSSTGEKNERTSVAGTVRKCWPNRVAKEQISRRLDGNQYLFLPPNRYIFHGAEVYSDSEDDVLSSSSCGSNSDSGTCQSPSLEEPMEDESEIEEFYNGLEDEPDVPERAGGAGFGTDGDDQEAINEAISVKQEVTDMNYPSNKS

Row | inhibition [1] [%] | inhibition [2] [%] | inhibition [3] | SMILES
1 | 10 |  |  | CCOc1ccc(N2C(=O)CC(N3CCN(C(=O)c4cccnc4)CC3)C2=O)cc1 (stereo not given)
2 | 16 |  |  | O=C(Cc1ccccc1)Nc1ccc2oc(-c3ccccc3F)nc2c1
3 | 51 | 44 | 17% | O=C(Cc1ccccc1)Nc1ccc2oc(-c3ccccc3Cl)nc2c1
4 | 13 |  |  | Cc1cccc(N2C(=O)CC(N3CCN(c4cccc(C(F)(F)F)c4)CC3)C2=O)c1 (stereo not given)
5 | 34 |  |  | NS(=O)(=O)c1ccc(NC(=O)COC(=O)CN2C(=O)C(=O)c3ccccc32)cc1
6 | 48 | 78 | 27% | O=C(/C=C/c1ccccc1)Nc1ccc2oc(-c3ccccc3Cl)nc2c1
7 | 5.6 |  |  | COc1ccc(N2C(=O)CC(N3CCN(c4ccc(S(C)(=O)=O)cc4)CC3)C2=O)cc1 (stereo not given)
8 | 6.4 |  |  | O=C1CC(N2CCN(c3ccc(F)cc3)CC2)C(=O)N1c1ccc2c(c1)OCO2 (stereo not given)
9 | 13 |  |  | O=C(Cc1ccccc1)Nc1ccc2oc(-c3ccc(Cl)cc3)nc2c1
10 | 22 |  |  | O=C(Nc1ccc(Nc2ccccc2)cc1)c1c(Cl)cccc1Cl
11 | 17 |  |  | Cc1ccc(-c2nc3cc(NC(=O)Cc4ccccc4)ccc3o2)cc1
12 | 7.6 |  |  | COc1ccc(N2C(=O)CC(NCCc3ccc(S(N)(=O)=O)cc3)C2=O)cc1 (stereo not given)
13 | 71 | 72 | 27% | O=C(Cc1ccccc1)Nc1ccc2oc(-c3ccc(Cl)cc3Cl)nc2c1
14 | 38 |  |  | O=C(/C=C/c1ccccc1)Nc1ccc2oc(-c3ccccc3F)nc2c1
15 | 13 |  |  | O=C(Cc1ccccc1)Nc1ccc2oc(-c3ccc(F)cc3Cl)nc2c1
16 | 20 |  |  | O=C1CC(N2CCN(c3cccc(C(F)(F)F)c3)CC2)C(=O)N1c1ccc(Cl)cc1 (stereo not given)
17 | 41 |  |  | O=C(Cc1ccccc1)Nc1ccc2oc(-c3cc(F)c(F)cc3Cl)nc2c1
18 | 65 | 73 | 33% | O=C(Cc1ccccc1)Nc1ccc2oc(-c3cc(Cl)ccc3Cl)nc2c1
19 | 7.5 |  |  | O=C(NCC1CCN(Cc2ccccc2Cl)CC1)Nc1cccc(Cl)c1
20 | 32 |  |  | O=C(Cc1ccc(Cl)cc1)Nc1ccc2oc(-c3ccccc3Br)nc2c1
21 | 5.6 |  |  | Cc1cccc(CN2CCC(CNC(=O)NCc3ccc(F)cc3)CC2)c1
22 | 39 | 35 | inactive | O=C(CSc1ncnc2c1oc1ccccc12)Nc1cccc(O)c1
23 | 5 |  |  | CCOc1ccc(N2C(=O)CC(N3CCN(C(=O)c4ccccc4)CC3)C2=O)cc1 (stereo not given)
24 | 6.9 |  |  | O=C1CC(N2CCN(c3ccc(F)cc3)CC2)C(=O)N1Cc1ccccc1 (stereo not given)

Row | inhibition [1] [%] | inhibition [2] [%] | inhibition [3] | SMILES
25 | 10 |  |  | Cc1ccccc1CC1CCN(CCCNC(=O)Nc2ccccc2)CC1
26 | 11 |  |  | O=C(c1ccccc1)N1CCN(C2CC(=O)N(c3cccc(Cl)c3)C2=O)CC1 (stereo not given)
27 | 13 |  |  | O=C1CC(N2CCN(c3cccc(C(F)(F)F)c3)CC2)C(=O)N1c1cccc(Cl)c1 (stereo not given)
28 | 6.6 |  |  | Cc1ccc(N2C(=O)CC(N3CCN(c4ccc(F)cc4)CC3)C2=O)cc1 (stereo not given)
29 | 32 |  |  | Cc1cccc(-c2nc3cc(NC(=O)Cc4ccccc4)ccc3o2)c1
30 | 6.5 |  |  | O=C1CC(N2CCN(c3ccc(O)cc3)CC2)C(=O)N1c1ccccc1 (stereo not given)
31 | 1.9 |  |  | O=C(CCC(=O)Nc1ccc(F)c(Cl)c1)Nc1ccc(F)c(Cl)c1
32 | 6.7 |  |  | CC(=O)Nc1ccc(NC(=O)CCC(=O)OCC(=O)c2cccc([N+](=O)[O-])c2)cc1
33 | 74 |  |  | O=C1CC(N2CCN(c3ccc([N+](=O)[O-])cc3)CC2)C(=O)N1c1ccccc1 (stereo not given)
34 | 16 |  |  | COc1ccc(CCNC2CC(=O)N(CCc3ccc(OC)c(OC)c3)C2=O)cc1OC (stereo not given)
35 | 17 |  |  | O=C(Cc1ccccc1)Nc1ccc2oc(-c3cccc(Cl)c3)nc2c1
36 | 7.5 |  |  | Cc1ccc(NC(=O)NCC2CCN(Cc3cc(C)ccc3Cl)CC2)c(C)c1
37 | 11 |  |  | O=C1CC(N2CCN(c3cccc(C(F)(F)F)c3)CC2)C(=O)N1c1ccc(I)cc1 (stereo not given)
38 | 15 |  |  | O=C1CC(N2CCC(Cc3ccccc3)CC2)C(=O)N1c1ccc(F)cc1 (stereo not given)
39 | 72 |  |  | O=C1C(Cl)=C(Nc2cccc(O)c2)C(=O)N1CCc1ccccc1
40 | 8.4 |  |  | COc1ccc(N2C(=O)CC(N3CCN(c4ccccc4O)CC3)C2=O)cc1 (stereo not given)
41 | 44 |  |  | COc1cccc(-c2nc3cc(NC(=O)Cc4ccccc4)ccc3o2)c1
42 | 33 |  |  | O=C(Cc1ccccc1)Nc1ccc2oc(-c3ccccc3Br)nc2c1
43 | 11 |  |  | NS(=O)(=O)c1ccc(CCNC2CC(=O)N(c3ccc(Cl)c(Cl)c3)C2=O)cc1 (stereo not given)
44 | 6.8 |  |  | COc1cccc(-c2noc(CCC(=O)Nc3ccc(NC(C)=O)cc3)n2)c1
45 | 6.3 |  |  | O=C(CSCC(=O)Nc1ccc2ccccc2c1)NCc1ccccc1
46 | 17 |  |  | O=C(Cc1ccc(Cl)cc1)Nc1ccc2oc(-c3ccccc3F)nc2c1
47 | 9.2 |  |  | O=C1CC(N2CCN(c3ccc(Cl)cc3)CC2)C(=O)N1c1ccc(F)cc1 (stereo not given)
48 | 48 | 40 | 19% | O=C(Cc1ccccc1)Nc1ccc2oc(-c3cccc(Cl)c3Cl)nc2c1
